Consider 45 compounds from PubChem BioAssay AID1626 (SRMLSC, 2009).

The subject of the test is M. tuberculosis H37Rv growth inhibition. The test is described as follows: M. tuberculosis H37Rv growth inhibitors, H37Rv strain (AID 1626). Conditions: for IC90: measured here: IC90 against H37Rv; for CC50: measured here: Vero cell cytotoxicity.

For `CC1(c2ccccc2)CC(C)(C)N(C(=O)c2cc([N+](=O)[O-])cc([N+](=O)[O-])c2)c2ccccc21` (configuration not stated), the IC50 is 13.4 µM, the IC90 came out at 54.5 µM and the CC50 was greater than 40 µM.

`CC(C)c1ccc(Nc2nc(NCc3ccco3)nc(N3CCOCC3)n2)cc1`: the IC50 is 4.99 µM, the IC90 amounted to 8.29 µM and the CC50 turned out to be 34.6 µM.

As for `CCOC(=O)c1cnc(-n2nc(C)cc2C)nc1NC(C)c1ccccc1` (configuration not stated), the IC50 is 1.06 µM, the IC90 came out at 2.08 µM and the CC50 worked out at 36 µM.

As to `O=C(OCC(=O)N1CCc2ccccc21)c1ccc(Cl)nc1`, the IC50 is 14.2 µM and the IC90 was greater than 100 µM.

As to `Cc1[nH]n(-c2ccccc2)c(=S)c1C=NCCCN=Cc1c(C)[nH]n(-c2ccccc2)c1=S`, the IC50 was less than 0.391 µM and the IC90 was greater than 100 µM.

For `Cc1ccc(-n2nnnc2Sc2nc([N+](=O)[O-])nn2C)cc1C`, the IC50 was 7.23 µM, the IC90 was 13.2 µM and the CC50 was 37.6 µM.

`Cc1nnc(NC(=O)c2ccc3ccccc3c2)o1`: the IC50 is 0.719 µM, the IC90 was found to be 1.46 µM and the CC50 was greater than 40 µM.

Regarding `O=C(Nc1nc(-c2ccccn2)cs1)C1CC(=O)N(c2ccc3c(c2)OCCO3)C1` (configuration not stated), the IC50 is 17.2 µM, the IC90 is greater than 100 µM and the CC50 came out at 36.7 µM.

For `CN1/C(=C\C(=O)c2cccs2)Sc2ccccc21`, the IC50 was 5.65 µM, the IC90 is 13.6 µM and the CC50 is greater than 40 µM.

As for `Cc1scc(C(=O)NCc2ccco2)c1-c1ccccc1`, the IC50 was 2.81 µM and the IC90 turned out to be 9.77 µM.

For the compound `CC1CCN(C(=O)COC(=O)CCc2c[nH]c3ccccc23)CC1`, the IC50 is 0.34 µM and the IC90 was greater than 100 µM.

In the case of `O=C(Nc1nc(-c2cc(F)ccc2F)cs1)c1ccccn1`, the IC50 was 3.8 µM, the IC90 amounted to 67.8 µM and the CC50 worked out at 21.2 µM.

Consider `Cc1cc(Nc2ccccc2)n(-c2nc3ccccc3[nH]2)n1`, for which the IC50 is less than 0.195 µM, the IC90 turned out to be 3.18 µM and the CC50 was greater than 40 µM.

In the case of `O=C(c1ccc2c3c(cccc13)CC2)C1CCCN(Cc2ccccn2)C1` (configuration not stated), the IC50 was 10 µM, the IC90 is greater than 100 µM and the CC50 is greater than 40 µM.

`CCOC(=O)c1ccc(N2CN=C3SCC(=O)N3C2)cc1`: the IC50 is 11.9 µM and the IC90 was greater than 100 µM.

As to `CSc1ccc(/C=C/C(=O)c2ccc(NC(C)=O)cc2)cc1`, the IC50 was 28.4 µM and the IC90 is greater than 100 µM.

As for `Nc1c(C(=O)NC2CCCCC2)nsc1C(=O)OCC(=O)NC1CCCCC1`, the IC50 was 2.04 µM, the IC90 is greater than 100 µM and the CC50 is greater than 40 µM.

`Cc1sc(NC(=O)c2ccco2)c(C(c2ccccc2)N2CCC(C)CC2)c1C` (configuration not stated) came in with a CC50 greater than 40 µM.

On to `Cc1ccc(C(=O)Nc2nnc(-c3ccncc3)o2)cc1`, for which the IC50 was 5.94 µM, the IC90 amounted to 6.95 µM and the CC50 was greater than 40 µM.

With `Cc1cc(C)cc(OCc2nnc(SCC(=O)OC3CCCCC3)o2)c1`, the IC50 is 1.83 µM and the IC90 came to 11.8 µM.

Take `Cc1csc(NC(=O)c2cc([N+](=O)[O-])cc([N+](=O)[O-])c2)n1`: the half-inhibitory concentration (IC50) is 11.1 µM, the IC90 came to 15.9 µM and the CC50 was greater than 40 µM.

Take `O=C(C[n+]1cc(-c2ccccc2)n2c1CCC2)N1c2ccccc2Sc2ccccc21`: the IC50 is 22.5 µM and the IC90 is greater than 100 µM.

As for `COc1ccc(CNCc2cc3c(C(C)(C)C)nn(-c4ccccc4)c3[nH]c2=O)cc1`, the IC50 was 11.4 µM, the IC90 stood at 13 µM and the CC50 was greater than 40 µM.

Consider `COc1ccc(CNCCC(c2ccc(F)cc2)c2ccc(OC(C)C)cc2)cc1OC` (configuration not stated), for which the IC50 was 15.2 µM, the IC90 was determined as 20.8 µM and the CC50 is 15.4 µM.

Consider `O=C(Nc1nc(-c2ccccn2)cs1)c1ccc(Br)s1`, for which the IC50 was less than 0.195 µM, the IC90 is 0.585 µM and the CC50 turned out to be 2.73 µM.

Turning to `COCc1ccc(O)c2ncccc12`, the IC50 was 10.9 µM, the IC90 amounted to 12 µM and the CC50 came out at 9.76 µM.

With `Cc1cc(NCc2ccccn2)n2ncc(-c3ccccc3)c2n1`, the IC50 is 4.82 µM, the IC90 was 7.62 µM and the CC50 turned out to be 31.4 µM.

Regarding `Cc1cccc(N2CCN(C(=O)c3ccc(CNc4c(N5CCC(C)CC5)c(=O)c4=O)cc3)CC2C)c1` (configuration not stated), the IC50 was 15.8 µM, the IC90 worked out at 22.2 µM and the CC50 was greater than 40 µM.

For `CCc1cccc2c1NC(=O)C21N2CCCC2C(C(=O)c2ccc3ccccc3c2)C12C(=O)Nc1ccccc12` (configuration not stated), the IC50 is 23.8 µM, the IC90 was greater than 100 µM and the CC50 is greater than 40 µM.

For the compound `O=[N+]([O-])c1cc(/C=N/N/C(=N/c2ccccn2)c2ccccn2)ccc1O`, the IC50 was 17.9 µM, the IC90 was greater than 100 µM and the CC50 turned out to be 26.8 µM.

Turning to `CC(C)OC(=O)c1ccc(N)cc1`, the IC50 was 30.1 µM and the IC90 is greater than 100 µM.

Take `CCCn1c(NC(=O)c2ccccc2)nc2ccccc21`: the IC50 was 3.89 µM, the IC90 is greater than 100 µM and the CC50 is greater than 40 µM.

Turning to `O=C(C[n+]1cc(-c2ccc(F)cc2)n2c1CCC2)Nc1nc(-c2ccc(F)cc2)cs1`, the IC50 was 10.5 µM and the IC90 is 41.1 µM.

As to `COc1ccc(N2CCN(c3nc(NC(C)(C)C)nc(N4CCCCC4)n3)CC2)cc1`, the IC50 is 3.75 µM, the IC90 was determined as 5.86 µM and the CC50 is greater than 40 µM.

On to `CCOc1ccc(NC(=O)CCSc2ccc3ccccc3n2)cc1`, for which the IC50 was 6.54 µM and the IC90 was greater than 100 µM.

For the compound `COc1ccc(Cn2c(O)c(/C=C3/C=CC=N3)c(=O)[nH]c2=O)cc1`, the IC50 was 0.269 µM, the IC90 is greater than 100 µM and the CC50 is greater than 40 µM.

With `COCCCN=C1NN=C(c2cc(C)n(-c3ccccc3F)c2C)CS1`, the IC50 is 5.21 µM, the IC90 came to 7.08 µM and the CC50 came out at 21.7 µM.

`Cc1c(C(=O)Oc2cccc3cccnc23)oc2ccccc12`: the IC50 was 3.04 µM, the IC90 amounted to 3.29 µM and the CC50 is 34.6 µM.

Regarding `Cc1cccc(C)c1OCC(=O)Nc1cccc(-c2nnc(-c3ccccc3)o2)c1`, the half-inhibitory concentration (IC50) was 10.7 µM, the IC90 was greater than 100 µM and the CC50 was greater than 40 µM.

As for `Cc1ccc(Nc2nc(N3CCN(C)CC3)nc(N)c2[N+](=O)[O-])cc1C`, the IC50 was 9.67 µM and the IC90 was 14.5 µM.

With `CCOC(=O)Cc1ccc(NC(=O)c2ccc(C(C)(C)C)cc2)cc1`, the IC50 was 35.6 µM, the IC90 was greater than 100 µM and the CC50 is greater than 40 µM.

`COc1ccc(-c2oc3ccc(N4CCOCC4)cc3c2C#CC2(O)CCCCC2)cc1` registered a CC50 greater than 40 µM.

For the compound `Cc1cc(C)n(C(=O)c2ccc([N+](=O)[O-])cc2[N+](=O)[O-])n1`, the IC50 is 7.05 µM and the IC90 amounted to 12.6 µM.

With `Cc1ccc(-c2[nH]nc(N)c2N=Nc2ccccc2C)cc1`, the IC50 is 5.45 µM, the IC90 was determined as 8.36 µM and the CC50 was greater than 40 µM.

`Cc1ccc(C2CC(C(F)(F)F)n3ncc(C(=O)NCc4ccco4)c3N2)cc1` (configuration not stated): the IC50 is less than 0.195 µM and the IC90 was 3.64 µM.
